Results on seven molecules are retold here after PubChem BioAssay (NCI).

What all share (test): growth of human tumour cells (NCI), 48 h
Assay [1] relates to SK-MEL-28 melanoma.
The test system of assay [2] is LOX IMVI melanoma.
Assay [3] deals with T-47D breast.
Assay [4] concerns SNB-19 CNS.
The subject of assay [5] is HT29 colon.
Assay [6] has as its system BT-549 breast.
Assay [7] concerns COLO 205 colon.
The test system of assay [8] is HL-60(TB) leukemia.
The test system of assay [9] is A549 NSCLC.
The test system of assay [10] is ACHN renal.
Assay [11] has as its system EKVX NSCLC.
The test system of assay [12] is U251 CNS.
For assay [13], the system named is NCI-H522 lung.
Assay [14] relates to OVCAR-3 ovarian.
Assay [15] concerns TK-10 renal.
Assay [16] concerns HCT-15 colon.
Assay [17] concerns SN12C renal.
The test system of assay [18] is NCI-H23 lung.
Assay [19] relates to A498 renal.
Assay [20] relates to MCF7 breast.

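Cultured in 96-well plates, cells were exposed to test compound for 48 hours across five concentrations. TGI: concentration producing complete growth inhibition.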 Bounds are passed on as bounds.

Consider `Cn1/c(=N\S(=O)(=O)c2ccccc2)n(S(=O)(=O)c2ccccc2)c2ccccc21`, for which the TGI in assay [1], in [2], in [3], in assay [4], in assay [5] and in [6] was over 100 µM each time. In addition, the TGI was over 100 µM in [7]; 7.16 µM in assay [8]; over 100 µM in assay [9]; over 100 µM in assay [10]; over 100 µM in assay [11]; over 100 µM in assay [12]. In addition, the TGI in assay [13], in assay [14], in assay [15], in [16], in [17] and in assay [18] was over 100 µM throughout. Besides, in assay [19], the TGI is over 100 µM.

With `CSc1ccc(NC(=S)NN(C)C)cc1`, the TGI in assay [1], in assay [2], in [3], in [4], in assay [5] and in [7] was over 10 µM throughout. Besides, the TGI in assay [8], in assay [9], in assay [10], in assay [11], in [12] and in assay [13] was over 10 µM throughout. The TGI in [14], in assay [15], in [16], in assay [17], in assay [18] and in [19] was over 10 µM each time. This molecule also yielded a TGI in [20] of over 10 µM.

`Fc1ccc2nc3n(c2c1)C(c1c(Cl)cccc1Cl)SC3` (stereo not given): the TGI in assay [1], in [2], in [3], in assay [4], in [5] and in [6] was over 100 µM in each case. Further, the TGI in assay [7], in assay [9], in [10], in assay [12], in [13] and in [14] was over 100 µM each time. Besides, the TGI in assay [15], in [16], in assay [17], in assay [18], in assay [19] and in assay [20] was over 100 µM throughout.

With `Cc1cc(NC[C@H](O)[C@H](O)[C@H](O)CO)c(Sc2cc(=O)[nH]c(=O)[nH]2)cc1C`, the TGI in [1], in assay [2], in assay [3], in [4], in assay [5] and in assay [6] was over 62.5 µM in each case. Further, the TGI in assay [7], in assay [9], in [10], in assay [11], in [12] and in assay [13] was over 62.5 µM in each case. For the same molecule, the TGI in [14], in assay [15], in assay [16], in assay [17], in assay [18] and in assay [19] was over 62.5 µM throughout. The molecule also registered a TGI in assay [20] of over 62.5 µM.

Consider `c1csc(-c2cc(-c3cccs3)c(-c3cccs3)s2)c1`, for which the TGI is over 100 µM in assay [1]; 77 µM in assay [3]; over 100 µM in assay [4]; over 100 µM in assay [5]; over 100 µM in assay [6]; over 100 µM in assay [7]. The TGI in [9], in assay [10], in assay [11], in assay [12], in assay [13] and in assay [14] was over 100 µM each time. Besides, the TGI is over 100 µM in assay [15]; over 100 µM in [16]; over 100 µM in assay [17]; over 100 µM in [18]; over 100 µM in assay [19]; 66.8 µM in assay [20].

For `CC(=O)O[C@@H]1C2=C(C)C=C(O2)[C@H]2O[C@]2(C)C[C@H]2C=C(C(=O)O2)[C@H](OC(C)=O)CC1[C@@]1(C)CO1` (stereo not given in full), the TGI in assay [1] was 36 µM; in assay [2], 37.6 µM; in [3], 39.7 µM; in assay [4], over 100 µM; in [5], over 100 µM; in assay [6] it was 48.5 µM. Further, the TGI is 27.1 µM in assay [7]; over 100 µM in assay [9]; 61.6 µM in assay [10]; 85 µM in [11]; 40.1 µM in [12]; 12.5 µM in assay [13]. The TGI in [15] was over 100 µM; in [16], 63.6 µM; in [17], 69.8 µM; in assay [18], over 100 µM; in assay [19], over 100 µM; in [20], 44.8 µM.

As for `CCCCN1C(=O)c2c(-c3sccc3N)sc(-c3sccc3N)c2C1=O`, the TGI in assay [1] is 36.7 µM; in [2], over 100 µM; in [3] it was over 100 µM; in [4], 44.2 µM; in assay [5], 44.5 µM; in [6], over 88.9 µM. The TGI in assay [7] was over 46.7 µM; in assay [9] it was over 100 µM; in assay [10], over 100 µM; in assay [11], over 83.7 µM; in assay [12], 51.6 µM; in [13], over 100 µM. Also, the TGI is 78.5 µM in assay [14]; 72.5 µM in assay [15]; over 100 µM in [16]; over 55 µM in assay [17]; over 100 µM in [18]; 76.8 µM in assay [19]. Besides, in assay [20], the TGI is over 100 µM.
